Publication PMC8880385 (Pharmaceuticals, 2022)
Like-named read-outs stand apart in the source and are kept apart here.

Legend:
[1] = test system: O. volvulus third-stage larvae (L3); assay: O. volvulus L3 to L4 molting assay; format: cell-based, Onchocerca volvulus; conditions: Day 6, read-out: O. volvulus L3 Inhibition of Molting Day 6 IC50
Description: O. volvulus, like other nematodes, undergo molts during their larval stages as they develop into the adult form. […] The molting assay tests the potency of compounds to prevent the L3 from molting to the L4 stage in vitro. […] Briefly, 5–10 Ov L3 collected from infected Simulium blackflies and frozen in liquid nitrogen were thawed and plated in 96-well plates seeded with 0.2 × 10^6 normal human peripheral blood mononuclear cells (PBMCs) in 100 µL complete medium containing 20% heat inactivated FBS and treated with compounds at 10, 3, 1, 0.3, 0.1 and 0.03 μM. L3 exposed to 0.5% DMSO or complete media only were run as negative controls. Larvae were incubated at 37 °C with 5% CO2, and molting was determined by examining the wells for highly motile L4 larvae and empty L3 casts after 6 days in culture.

[2] = test system: O. ochengi adult males; assay: O. ochengi adult male motility assay; format: cell-based; conditions: Onchocerca ochengi, 120 h; read-out: O. ochengi Adult Males Inhibition of Motility Day 5 IC50
Source text: As humans are the only hosts for O. volvulus which are unavailable for screening, drug discovery relies on the surrogate filarial parasites Brugia spp. and cattle Onchocerca spp. Prioritized compounds from the Brugia worm screens were further tested with female and male adult O. ochengi as well as O. ochengi and L. loa mf.
For these assays, O. ochengi adults were extracted from the subcutaneous nodules of infected cow skins purchased from the local slaughterhouse (Douala, Littoral Region, Cameroon) and incubated in 4 mL complete culture media comprised of RPMI-1640 (Sigma-Aldrich), 5% newborn calf serum, 200 units/mL penicillin, 200 μg/mL streptomycin and 2.5 μg/mL amphotericin B (Sigma-Aldrich) in 12-well plates overnight to validate sterility prior to the assays. Four to eight O. ochengi adult masses were treated individually the following day with a serial dilution of each compound, and controls were treated with 1% DMSO. While in culture, the male worms normally egress from the nodules into the surrounding media and thus can be monitored in parallel for motility. The O. ochengi adult masses were incubated at 37 °C with 5% CO2 for the duration of the assay. Male motility within each well was visually scored every day and over 5 days after compound addition, and female viability within the nodules was assessed by MTT after 7 days as previously described. The O. ochengi adult masses containing female worms were individually placed in wells of a 48-well plate with 0.5 mL of 0.5 mg/mL MTT in PBS and incubated at 37 °C for 30 min. Female viability was visually rated by the degree of formazan production (live worms have blue coloration) in the female worm within the treated nodule versus control worm masses. […] Prism 4.0 for Windows was used to calculate IC50s.

[3] = test system: O. ochengi mf; assay: O. ochengi microfilariae motility assay; format: cell-based, Onchocerca ochengi; conditions: Onchocerca ochengi, 120 h; 10 µM, Day 5
Description: To assess the effects of the compounds on O. ochengi mf, the mf were harvested from infected cow skin and cultured (10–15 mf per well) in 100 µL media in 96-well plates with a confluent feeder layer of monkey kidney epithelial cells (MK2) as previously described. […] All compounds were also counter-screened with L. loa mf collected from infected individuals with approval from the University of Buea (IRB approval # 964-19). Mf were separated from blood cells using a Percoll gradient as previously described and set up for assays (10–15 mf per well).

[4] = Gerbil liver microsome stability assay; format: in vitro ADME
Description: Microsomal stability was tested using 1 µM of each test compound in a 96-well plate containing 0.5 mg/mL gerbil liver microsomes, 1 mM NADPH and/or UDPGA with alamethicin in a buffer of 100 mM potassium phosphate with 3 mM magnesium chloride at pH 7.4. Verapamil was used as a positive control. Reactions were incubated at 37 °C, and 100% acetonitrile with 0.1% formic acid was added at 0, 15, 30 and 60 min timepoints to stop the reaction. Samples were then separated over a Waters Atlantis T3 dC18 reverse phase HPLC column with 0.1% formic acid in water and 0.1% formic acid in acetonitrile. Samples were analyzed using an AB Sciex API 4000 LC–MS/MS.

[5] = in vitro; conditions: dog, MDCK-MDR1
Description: Permeability assays were conducted using 5 µM of each test compound with digoxin as a control. […] electrical resistance was used to verify the integrity of the MDCK-MDR1 monolayer. After compound addition, plates were incubated at 37 °C with 5% CO2 for 1 h. Samples were analyzed by LC–MS/MS and net flux ratio was calculated using basal-to-apical and apical-to-basal permeability.

[6] = test system: Brugia pahangi adult females; assay: Transmission electron microscopy of B. pahangi adult females from treated gerbils; format: in vivo; conditions: females from gerbils treated with 1 mg/kg
Description: B. pahangi adult females recovered from gerbils treated with 1 mg/kg THP and analog 06 were prepared as above except worms were cut into approximately 5 mm long pieces taken from the center of the worm. Pieces were washed for one hour in 0.1 M sodium cacodylate followed by post-fixation in 1% osmium tetroxide for 1 h and again washed in the same buffer for another hour. Sample pieces were dehydrated using an increasing concentration of ethanol and resin (Durcupan, by Fluka) and transitioned using propylene oxide. Samples were left overnight in pure resin at 4 °C. Samples pieces were embedded using Beem capsules (Electron Microscopy Sciences) and cured at 60 °C overnight. All reagents were purchased from Electron Microscopy Sciences.
Blocks were trimmed and sectioned using a diamond knife on a Sorvall MT-6000 ultramicrotome, collected on formvar coated 1 mm slot grids and contrasted using uranyl acetate and lead citrate. Grids were imaged on a Philips CM100 transmission electron microscope at 80 kV and images were collected using a Gatan Orius imaging system.

[7] = test system: Brugia pahangi adult females; assay: In vitro motility assay with adult female Brugia pahangi (Worminator)

Question: For `Cc1ccc2c(ccc(/C=C/c3c(C)nn(-c4ccccc4)c3C)[n+]2C)c1.[I-]` [Analog 06, 2-[(E)-2-(3,5-dimethyl-1-phenyl-1H-pyrazol-4-yl)ethenyl]-1,6-dimethylquinolin-1-ium iodide], which IC50 [1] is on record?
Answer: The IC50 was 460 nM.

Question: What about the IC50 ([1]; Onchocerca volvulus, 144 h) of the same compound?
Answer: Its IC50 is 458 nM.

Question: And the IC50 [2]?
Answer: The IC50 was 2750 nM.

Question: What about the inhibition at 10 µM [3] of the same compound?
Answer: Its inhibition at 10 µM is 46%.

Question: What about the CLint ([4]; gerbil liver microsomes) of the same compound?
Answer: The CLint was 0.933 µL/min/mg Protein.

Question: And the half-life at 1 µM ([4]; pH 7.4, 1 µM compound, 0.5 mg/mL microsomes, read-out: Gerbil Liver Microsome T1/2)?
Answer: Its half-life at 1 µM is 24.7 h.

Question: And the Papp A→B [5]?
Answer: Its Papp A→B is 0.5 ×10⁻⁶ cm/s.

Question: And the Papp B→A [5]?
Answer: Its Papp B→A is 12.1 ×10⁻⁶ cm/s.

Question: And the “Ultrastructure of gonads / developing microfilariae of female worms (TEM)” value ([6]; 1 mg/kg)?
Answer: The value was “more severe effect on the gonads”.

Question: And the “Ultrastructure of gonads / developing microfilariae of female worms (TEM)” value ([6]; listed as 06, 1 mg/kg)?
Answer: The value was “abnormal ultrastructural phenotypes”.

Question: What about the “Brugia Adult Females Inhibition of Motility Day 3 @ 1 µM” value ([7]; 1 µM, Day 3, 1 µM) of the same compound?
Answer: Its value is 71%.

Question: What about the inhibition at 1 µM ([7]; Brugia pahangi, 72 h, read-out: Brugia Adult Females Inhibition of Motility Day 3 @ 1 µM, 1 µM, Day 3) of the same compound?
Answer: Its inhibition at 1 µM is > 70%.

Question: And the IC50 ([7]; Brugia pahangi, 72 h, read-out: Brugia Adult Females Inhibition of Motility Day 3 IC50)?
Answer: The IC50 was 733 nM.

Question: What about the “Brugia Adult Females Inhibition of Motility Day 3 IC50” value ([7]; Day 3) of the same compound?
Answer: Its value is “sub-micromolar range”.
